According to patent US20250205177A1, “HONEYBEE ANTIDOTE COMPOSITION” (priority 2023, published 2025):

Tests used:
[1] = system: detoxification enzymes (oxidases) of honeybees; test: Gene expression / activity of detoxification enzymes 24 hours after carbaryl exposure; assay type: in vivo; conditions: 200 ppm curcumin
Procedure: FIGS. 8 and 9 show graphs for explaining gene expression analysis of detoxification enzymes in SU (50% sugar syrup), CU (50% sugar syrup +200 ppm of curcumin), and the control group (ACET, exposed to only 2 ul of acetone and given sugar), 24 hours after being exposed to carbaryl.

[2] = system: honeybees (Apis mellifera) chronically exposed to carbaryl; test: Long-term indoor feeding with chronic oral exposure to carbaryl; assay type: in vivo; conditions: 100 ppm curcumin; for mortality rate of honeybees: 10 days
Excerpt: FIG. 4 is a graph of a Kaplan-Meier survival curve for test honeybees (Apis mellifera) chronically exposed to 2.5 and 5 ppm of carbaryl through oral exposure.
FIGS. 5A and 5B show graphs of the mortality rate of honeybees for 10 days after being chronically exposed to 2.5 ppm (5A) and 5 ppm (5B) of carbaryl.

[3] = system: honeybee colonies used for melon pollination; test: Field experiment in melon greenhouses: colony strength factors; assay type: in vivo, honeybees
Procedure: The impact observed when adding 100 ppm of curcumin to greenhouses for growing melons was assessed. Thirty greenhouses owned by three farmers were used in this study. While one group of honeybees was given a solution supplemented with 100 ppm of curcumin (CU100), the control hives were given only 50% sugar syrup. Colony strength factors were measured every 10 days.

[4] = system: foragers (field bees) poisoned by carbaryl; test: Curcumin feeding of forager (field) bees topically poisoned by carbaryl; assay type: in vivo, honeybees; conditions: indoor feeding
Procedure: (§1) […] These experiments were performed separately on newly emerged honeybees and foragers. While 0.063 ug of an insecticide was administered to the chest of each newly emerged honeybee, 0.11 ug of the insecticide was applied to each forager bee. The intoxicated honeybees were exposed to carbaryl and then fed supplementary food. While the control group consumed only sugar syrup, the experimental group consumed supplementary food containing curcumin. All honeybee groups were fed for 48 hours under controlled laboratory conditions.

[5] = system: newly emerged honeybees (nurse bees) poisoned by carbaryl; test: Curcumin feeding of newly emerged (nurse) honeybees topically poisoned by carbaryl; assay type: in vivo; conditions: for mortality rate: nurse bees, indoor feeding
Procedure: as §1

[6] = 100 ppm curcumin, melon greenhouses at Seongju, long-term

## COc1cc(/C=C/C(=O)CC(=O)/C=C/c2ccc(O)c(OC)c2)ccc1O [curcumin]
[1]
  activity of the detoxification enzymes: even higher level
[2]; Kaplan-Meier, 2.5 and 5 ppm carbaryl oral
  survival rate of honeybees in exposure experiments to carbaryl: highest
[2]; chronic exposure to 2.5 ppm carbaryl, control 38%
  mortality rate of honeybees: 21%
[2]; chronic exposure to 5 ppm carbaryl, control 78%
  mortality rate of honeybees: 55%
[3]; 100 ppm curcumin compared with only sucrose solution
  rate of hive weight reduction: lower
[3]; [6]
  number of both adult and larval honeybees: tended to increase
  weight of honey storage (honey): no change
[3]; group treated with 100 ppm curcumin
  activities of honeybees in outdoor experiments: excellent
[4]; 50 ppm curcumin, reduced from 35
  mortality rate: 24
[4]; 90 ppm curcumin, from 35
  mortality rate: 24
[4]; 100 ppm curcumin, reduced from 35
  mortality rate: 18
[4]; 110 ppm curcumin, from 35
  mortality rate: 24
[5]; curcumin at varying concentrations after carbaryl exposure
  mortality rate of nurse bees compared with control (in words): noticeable reduction
[5]; 50 ppm curcumin, reduced from 80
  mortality rate: 50
[5]; 90 ppm curcumin, from 80
  mortality rate: 33
[5]; 100 ppm curcumin, reduced from 80
  mortality rate: 24
[5]; 110 ppm curcumin, from 80
  mortality rate: 34
